Where two headings read alike, the source gives them in different places.
Columns and labels:
βAR-m23 = βAR-m23 (Meleagris gallopavo, UniProt P07700, A282L/C116L/F327A/F338M/M90V/R68S/Y227A); format: binding, turkey
[1] = Thermostability of β adrenergic receptors expressed in mammalian cells, minus-ligand format (FIG. 26); conditions: 0.1% dodecylmaltoside, apo-state heated, 3H-DHA
From the text: The resulting mutants were transiently expressed in mammalian cells, solubilised in 0.1% dodecylmaltoside and assayed for thermostability in the minus-ligand format (heating the apo-state, quenching on ice, adding 3H-DHA).

A2aR mutant Rag 23 = conditions: detergent-solubilised

Sequence of βAR-m23 (P07700 34-424 R68S/M90V/C116L/Y227A/A282L/F327A/F338M): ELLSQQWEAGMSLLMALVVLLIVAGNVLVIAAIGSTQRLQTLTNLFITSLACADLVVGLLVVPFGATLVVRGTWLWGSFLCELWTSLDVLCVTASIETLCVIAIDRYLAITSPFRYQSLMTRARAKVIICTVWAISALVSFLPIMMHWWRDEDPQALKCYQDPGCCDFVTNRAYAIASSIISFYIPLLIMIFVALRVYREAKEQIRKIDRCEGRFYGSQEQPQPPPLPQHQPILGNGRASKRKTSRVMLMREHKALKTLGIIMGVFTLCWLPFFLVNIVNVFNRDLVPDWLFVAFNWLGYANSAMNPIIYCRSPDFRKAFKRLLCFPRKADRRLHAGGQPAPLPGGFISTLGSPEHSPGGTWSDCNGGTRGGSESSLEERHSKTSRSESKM

Compound: 1-[4,6-propyl-^3H]-dihydroalprenolol [[^3H]-dihydroalprenolol]
- Kd (βAR-m23; membranes, n=2): 0.0065 ± 0.0002 µM
- Kd (βAR-m23; semipurified receptor): 0.0125 µM

Compound: turkey β1: turkey β1 adrenergic receptor transiently expressed in mammalian cells
- apparent Tm [1]: 23 °C

Compound: human β1: human β1 adrenergic receptor
- apparent Tm [1]: ~12 °C

Compound: CCNC(=O)[C@H]1O[C@@H](n2cnc3c(N)ncnc32)[C@H](O)[C@@H]1O [[^3H]NECA]
- Kd (A2aR mutant Rag 23): 0.021 ± 0.001 µM

Source: US9260505B2, “Methods for screening for binding partners of G-protein coupled receptors” (Heptares Therapeutics Limited, priority 2007, dated 2016)
